The values that follow are results of earlier work, collected in patent US20020127223A1, “Method for reducing side effects of a drug” (priority 1984, published 2002).

The conditions of the data set: administered 3 hours following methotrexate.

`Nc1nc(=O)c2c([nH]1)NCC(CNc1ccc(C(=O)N[C@@H](CCC(=O)O)C(=O)O)cc1)N2C=O` (mixture of isomers) [folinic acid]: the “Attenuation of the toxic effects of methotrexate” value is listed as “attenuate the toxic effects of methotrexate”.
